# Values joined by “and” are separate entries in the source; they are usually repeats but may differ in a detail not shown here. Equal entries are not always repeated.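 Values below derive from 48-hour exposures of cells grown in 96-well plates, with endpoints linearly interpolated between the two concentrations bracketing the appropriate inhibition level. GI50 marks 50% less growth. TGI: total growth inhibition.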
# How the values were obtained:
# Assay in all cases: NCI-60 cell line screen, 48 h
# [1] = tested on: RPMI-8226 leukemia
# [2] = tested on: LOX IMVI melanoma
# [3] = tested on: OVCAR-8 ovarian
# [4] = tested on: SN12C renal
# [5] = tested on: CAKI-1 renal
# [6] = tested on: 786-0 renal
# [7] = tested on: IGROV1 ovarian
# [8] = tested on: M14 melanoma
# [9] = tested on: SR leukemia
# [10] = tested on: NCI/ADR-RES ovarian
SMILES,TGI [1],TGI [2],TGI [3],TGI [4],TGI [5],TGI [6],TGI [7],TGI [8],TGI [9],GI50 [1],GI50 [10],TGI [10],GI50 [2],GI50 [3],GI50 [4],GI50 [5],GI50 [6],GI50 [7],GI50 [8]
COc1ccc2nccc(C3=CCC4CCN(C(=O)c5ccccc5)C3C4)c2c1 (stereo unspecified),> 100 µM,> 100 µM,> 100 µM,> 100 µM,> 100 µM,> 100 µM,> 100 µM,> 100 µM,,,,,,,,,,,
COC(=O)C1=CO[C@@H](OC2CC(CO)C(O)C(O)C2O)[C@@H]2[C@@H](C)[C@@H](OC(=O)/C=C/c3ccccc3)[C@@H](O)[C@H]12 (stereo partly specified) (tested in a mixture with another compound),> 100 µM,> 100 µM,> 100 µM,> 100 µM,> 100 µM,> 100 µM,> 100 µM,> 100 µM,> 100 µM,,,,,,,,,,
Cn1c(=O)nc2n(-c3ccc(O)cc3)c3ccccc3nc-2c1=O,> 100 µM,,> 100 µM,> 100 µM,> 100 µM,> 100 µM,> 100 µM,> 100 µM,,,,,,,,,,,
CC1=C(C(=O)Nc2ccccc2C)C(c2ccc(Cl)cc2)C(C(=O)Nc2ccccc2C)=C(C)N1,> 100 µM,> 100 µM,> 100 µM,> 100 µM,> 100 µM,> 100 µM,> 100 µM,> 100 µM,> 100 µM,,,,,,,,,,
O=C(NCCCOC(=O)CCCCCCCCC(=O)OCCCNC(=O)NC(=O)c1c[nH]c(=O)[nH]c1=O)NC(=O)c1c[nH]c(=O)[nH]c1=O,> 100 µM,> 100 µM,> 100 µM,> 100 µM,> 100 µM,> 100 µM,> 100 µM,> 100 µM,,,,,,,,,,,
CN1N=CSC12C(=O)N(c1ccccc1)C(=O)N2c1ccccc1 (stereo unspecified),> 100 µM,> 100 µM,> 100 µM,> 100 µM,> 100 µM,> 100 µM,> 100 µM,> 100 µM,,,,,,,,,,,
C/C=C/C(C#N)O[Si](C)(C)C (stereo unspecified),,,> 100 µM,> 100 µM,> 100 µM,> 100 µM,> 100 µM,> 100 µM,,,,,,,,,,,
COc1cc(Cl)cc(=O)c(O)c1OC,> 100 µM,> 100 µM,> 100 µM,> 100 µM,,> 100 µM,,> 100 µM,> 100 µM,,,,,,,,,,
CCOC(=O)NC(=O)c1cn(CCN2CCN(C(=O)NCCCCCCNC(=O)N3CCN(CCn4cc(C(=O)NC(=O)OCC)c(=O)[nH]c4=O)CC3)CC2)c(=O)[nH]c1=O,> 100 µM,> 100 µM,> 100 µM,> 100 µM,,> 100 µM,> 100 µM,> 100 µM,> 100 µM,,,,,,,,,,
Cn1ccnc1CCc1c(Cl)cccc1Cl,> 100 µM,> 100 µM,> 100 µM,> 100 µM,> 100 µM,> 100 µM,> 100 µM,> 100 µM,> 100 µM,,,,,,,,,,
Cc1c(OC(C)C(=O)O)ccc2c(-c3ccccc3)cc(=O)oc12 (stereo unspecified),> 100 µM,> 100 µM,> 100 µM,> 100 µM,> 100 µM,> 100 µM,> 100 µM,> 100 µM,> 100 µM,,,,,,,,,,
COC1=NCc2ccccc2-c2ccccc21,,> 100 µM,> 100 µM,> 100 µM,,> 100 µM,,,,,,,,,,,,,
COc1ccc2c(c1)C(=O)/C(=C/c1cccc(OCC(=O)c3ccccc3)c1)CC2,5.91 µM,> 100 µM,> 100 µM,> 100 µM,> 100 µM,> 100 µM,> 100 µM,> 100 µM,,2.31 µM,5.42 µM,93.9 µM,9.61 µM,44.1 µM,61 µM,13 µM,54.4 µM,4.19 µM,16.7 µM
O=C1Nc2ccccc2C1(O)C/C(=N/O)c1ccc2ccccc2c1 (stereo unspecified),> 100 µM,81.9 µM,> 100 µM,> 100 µM,,> 100 µM,,> 100 µM,,,,,,,,,,,
Cc1ccc(S(=O)(=O)SC/C=C\CSS(=O)(=O)c2ccc(C)cc2)cc1,16.5 µM and 47 µM,33.2 µM and 29.1 µM,46.8 µM and 33.9 µM,88.5 µM and 37.1 µM,88.9 µM and 45.7 µM,> 66.2 µM and 32.3 µM,> 100 µM and 79.2 µM,68.6 µM and 33.5 µM,,,,> 100 µM,4.68 µM and 13.5 µM,,,,,,
CCc1c(C#N)c(=O)[nH]c(=O)n1CCN1CCN(C(=O)NCCCCCCNC(=O)N2CCN(CCn3c(CC)c(C#N)c(=O)[nH]c3=O)CC2)CC1,> 100 µM,> 100 µM,> 100 µM,> 100 µM,> 100 µM,> 100 µM,> 100 µM,> 100 µM,,,,,,,,,,,
C[C@@H](NC(C#N)c1ccco1)c1ccccc1 (stereo partly specified),> 100 µM,,> 100 µM,> 100 µM,,> 100 µM,> 100 µM,> 100 µM,> 100 µM,,,> 100 µM,,,,,,,
CCSCCCSCCSCC,,> 100 µM,> 100 µM,> 100 µM,,> 100 µM,> 100 µM,> 100 µM,,,,,,,,,,,
IC[P+]1(c2ccccc2)CCCC1,> 100 µM,> 100 µM,> 100 µM,60.8 µM,,> 100 µM,> 100 µM,> 100 µM,> 100 µM,,,,,,,,,,
O=C(N/N=C/c1ccccc1O)N/N=C/c1ccccc1O,> 100 µM,> 100 µM,> 100 µM,> 100 µM,,> 100 µM,> 100 µM,> 100 µM,,,,,,,,,,,
CC[O-].CC[O-].O=C([CH-]C(=O)c1ccccc1)CCCCCCCCC(=O)[CH-]C(=O)c1ccccc1.[Ti+4],> 100 µM,> 100 µM,> 100 µM,> 100 µM,> 100 µM,> 100 µM,> 100 µM,> 100 µM,,> 100 µM,,,> 100 µM,52.1 µM,> 100 µM,> 100 µM,> 100 µM,> 100 µM,> 100 µM
O=C1/C(=C/c2ccc([N+](=O)[O-])cc2)CN(C(=O)CCN2CCC(=NO)CC2)C/C1=C\c1ccc([N+](=O)[O-])cc1,1.6 µM,0.739 µM,5.5 µM,2.51 µM,2.39 µM,3.66 µM,2.75 µM,6.4 µM,,0.368 µM,1.49 µM,17.8 µM,0.296 µM,0.806 µM,0.677 µM,0.756 µM,1.06 µM,0.817 µM,1.51 µM
O=C1CC(CC(=O)C2CCCCC2=O)C(=O)N1 (stereo unspecified),> 100 µM,> 100 µM,> 100 µM,> 100 µM,> 100 µM,> 100 µM,> 100 µM,> 100 µM,> 100 µM,,,,,,,,,,
